The target in one assay is EV-D68 2A^pro (Enterovirus D68, UniProt A0A097BW19). Nature of the assay: FRET-based enzymatic assay of EV-D68 2Apro inhibition. It is filed as biochemical. The note with it: for IC50: read-out: Enzymatic inhibitory activity IC50. As to the method: (§1) Protein expression and purification. EV-D68 2A^pro gene from strain US/KY/14-18953 was ordered from Genscript (Piscataway, NJ) in pET28b(+) vector with E. coli codon optimization. 2A^pro gene was subcloned into pE-SUMOstar vector according to the manufacturers protocol. Plasmid encoding WT-2A^pro was transformed into BL21(DE3) competent E. coli cells, and a single colony was picked and used to inoculate 10 mL of L.B. grown supplemented with 50 μg/mL kanamycin at 37° C. at 250 rpm. The 10 mL inoculant was added to 1 L of L.B. with 50 μg/mL kanamycin and grown to an OD600 of 0.8-1.0, cooled to 18° C., then induced using 0.5 mM IPTG. Induced cultures were incubated at 18° C. for an additional 24 h, then harvested and resuspended in lysis buffer (25 mM Tris (pH 7.5); 750 mM NaCl, 2 mM DTT with 0.5 mg/mL lysozyme, 0.5 mM PMSF and 0.02 mg/mL DNase I) and lysed with alternating sonication and French press cycles. The cell debris were removed by centrifugation at 12,000×g for 45 min […]. The supernatant was incubated with Ni-NTA resin for over 2 h at 4° C. on a rotator. The Ni-NTA resin was thoroughly washed with 50 mM imidazole in wash buffer (50 mM Tris (pH 7.5), 150 mM NaCl, and 2 mM DTT); for the SUMO-tagged protein, the protein was directly eluted with 300 mM imidazole; for the nontagged 2A^pro Ni-NTA resin was treated with SUMO Protease 1 to remove the SUMO tag, then 2A^pro was washed off from the column with 10 mM imidazole in wash buffer. The imidazole was removed via dialysis or 10 K molecular weight cut-off centrifugal concentrator spin column. The purity of the protein was confirmed with SDS-PAGE. The protein concentration was determined by classic BCA assay using bovine serum albumin as a standard. EV-D68 3C^pro in pET28b(+) vector was expressed as previously described^10.
(§2) Peptide synthesis. The FRET substrate of EV-D68 2A^pro, Dabcyl-KIRIVNT/GPGFGGE-Edans, was synthesized using the Fmoc solid phase synthesis strategy.
(§3) Enzymatic assays. The reaction buffer contains 50 mM Tris (pH7.0), 150 mM NaCl, 10% Glycerol, and 2 mM DTT, and the reaction was carried out at 30° C. in Cytation 5 imaging reader (Fisher Scientific) with EX360/40-EM460/40 filter. Reactions were monitored every 90 sec. […] The reaction was initiated by adding 20 μM of FRET substrate, and the reaction was monitored for 2 hours and initial velocity was calculated for the first 30 minutes via linear regression.

Another assay has as its system EV-D68 US/MO/14-18947. Nature of the assay: CPE assay (neutral red) with EV-D68 US/MO/14-18947 in R.D. cells. The class given is cell-based, Enterovirus D68. As to the method:
Cell lines and viruses. Human rhabdomyosarcoma (R.D., ATCC, CCL-136) cells were maintained at 37° C. in a 5% CO2 atmosphere and cultured in Dulbecco's modified Eagle's medium (DMEM) supplemented with 10% fetal bovine serum (FBS) and 1% penicillin-streptomycin antibiotics. The following reagents were obtained through BEI Resources, NIAID, NIH: Human Enterovirus D68, US/MO/14-18949, NR-49130; Enterovirus D68, US/MO/14-18947, NR-49129; Enterovirus D68, US/IL/14-18952, NR-49131; Enterovirus D68, US/KY/14-18953, NR-49132; Enterovirus D68, US/IL/14-18956, NR-49133.
Antiviral assays. Cells for antiviral assays were seeded and grown overnight at 37° C. in a 5% CO2 atmosphere for ˜90% confluency the next day. For all infections, cells were washed with PBS containing magnesium and calcium and infected with virus diluted in DMEM with 2% FBS and 30 mM MgCl2. Viruses were incubated for at least 1 h at 33° C. in a 5% CO2 atmosphere, followed by the addition of compound as well as 1% penicillin-streptomycin. For CC50 measurements, the experiment was performed similarly but excluded viral infection. For cytopathic effect (CPE) assays, cells were stained with 66 µg/mL neutral red for 2 h and neutral red uptake was measured at absorbance 540 nm using a Multiskan FC Microplate Photometer (ThermoFisher Scientific). The EC50 and CC50 values were calculated from best-fit dose response curves using GraphPad Prism. For plaque reduction assays, an 1.2% avicel microcrystalline cellulose (FMC BioPolymer, Philadelphia, PA) overlay was used and cells were stained after 3 days as previously described^26.

Assay [1] deals with T1, EV-D68 2A^pro (WT-2A^pro, strain US/KY/14-18953, expressed in E. coli BL21(DE3) from pE-SUMOstar vector) (enterovirus D68, UniProt A0A097BW19).
T1 construct: E. coli-codon-optimised gene, pE-SUMOstar, His-SUMO tag (removed with SUMO protease for nontagged form), E. coli BL21(DE3), Ni-NTA; 7JRE is the C107A mutant
Nature of the assay: FRET-based enzymatic assay of EV-D68 2A^pro inhibition (FRET substrate Dabcyl-KIRIVNT/GPGFGGE-Edans). The class given is biochemical. As to the method:
FIG. 4. […] Key structural variations compared to telaprevir were highlighted in red. Enzymatic inhibitory activity IC50 value was determined in the FRET-based assay. Antiviral EC50 value was determined in the CPE assay with EV-D68 US/MO/14-18947 in R.D. cells. Cytotoxicity CC50 value was determined using the neutral red uptake method in R.D. cells. The results are the mean±standard deviation of two independent experiments with three repeats in each experiment.
FIG. 5. […] Key structural variations compared to Jun8861 were highlighted in red. Enzymatic inhibitory activity IC50 value was determined in the FRET-based assay. Antiviral EC50 value was determined in the CPE assay with EV-D68 US/MO/14-18947 in R.D. cells. Cytotoxicity CC50 value was determined using the neutral red uptake method in R.D. cells. The results are the mean±standard deviation of two independent experiments with three repeats in each experiment.
as §1, §2, §3

Where [2] appears, read: Enterovirus D, EVD68, RD, read-out: Antiviral EC50, CPE assay, EV-D68 US/MO/14-18947 in R.D. cells.
The mark [3] stands for this setting: CPE assay, EV-D68 US/MO/14-18947 in R.D. cells.

Read-outs that look alike come from different tables or passages of the source.

What is called IC50 is the concentration at which inhibition is half-maximal. Take `CCC[C@H](NC(=O)[C@@H]1[C@H]2CCC[C@H]2CN1C(=O)[C@@H](NC(=O)CC1CCCCC1)C(C)(C)C)C(=O)C(=O)NC1CC1` [Jun8814, (1S,3aR,6aS)-2-((S)-2-(2-cyclohexylacetamido)-3,3-dimethylbutanoyl)-N—((S)-1-(cyclopropylamino)-1,2-dioxohexan-3-yl)octahydrocyclopenta[c]pyrrole-1-carboxamide]: the IC50 at EV-D68 2A^pro was 80 to 140 nM; in assay [1], 90 ± 10 nM. For the same molecule, the EC50 with EV-D68 US/MO/14-18947 (setting [2]) lay in the range of 160 to 750 nM.
For “(1S)-2-((S)-2-(2-((3S,5S,7S)-adamantan-1-yl)acetamido)-3,3-dimethylbutanoyl)-N-((2S)-4-(cyclopropylamino)-3-hydroxy-4-oxo-1-(thiophen-3-yl)butan-2 yl)octahydrocyclopenta[c]pyrrole-1-carboxamide [Jun11818]”, on EV-D68 2A^pro, the “enzymatic inhibition, in words, relative to the named comparator” value was “comparable enzymatic inhibition and antiviral activity as Jun11385”. Further, in the assay on EV-D68 US/MO/14-18947 (setting [3]), the “antiviral activity, in words, relative to the named comparator” value was “comparable enzymatic inhibition and antiviral activity as Jun11385”.
For `CC(C)C[C@H](NC(=O)[C@@H]1[C@H]2CCC[C@H]2CN1C(=O)[C@@H](NC(=O)CC12CC3CC(CC(C3)C1)C2)C(C)(C)C)C(=O)C(=O)NC1CC1` [Jun11389, (1S,3aR,6aS)-2-((S)-2-(2-((3S,5S,7S)-adamantan-1-yl)acetamido)-3,3-dimethyl-butanoyl)-N—((S)-1-(cyclopropylamino)-5-methyl-1,2-dioxohexan-3-yl)octahydro-cyclopenta[c]pyrrole-1-carboxamide], in the assay on EV-D68 US/MO/14-18947 (setting [3]), the “antiviral activity, in words, relative to the named comparator” value is recorded as “failed to improve the antiviral potency compared to Jun8861”. Also, the midpoint of inhibition in assay [1], the IC50, lay at 260 ± 50 nM.
On to `CC(C)[C@H](NC(=O)[C@@H]1[C@H]2CCC[C@H]2CN1C(=O)[C@@H](NC(=O)CC12CC3CC(CC(C3)C1)C2)C(C)(C)C)C(=O)C(=O)NC1CC1` [Jun11718, (1S,3aR,6aS)-2-((S)-2-(2-((3S,5S,7S)-adamantan-1-yl)acetamido)-3,3-dimethylbutanoyl)-N—((S)-1-(cyclopropylamino)-4-methyl-1,2-dioxopentan-3-yl)octahydrocyclopenta[c]pyrrole-1-carboxamide], for which the “enzymatic inhibition, in words, relative to the named comparator” value at EV-D68 2A^pro was “comparable enzymatic inhibition and antiviral activity as Jun8861”. Further, the “antiviral activity, in words, relative to the named comparator” value in the assay on EV-D68 US/MO/14-18947 (setting [3]) is “comparable enzymatic inhibition and antiviral activity as Jun8861”.
Consider `CCC[C@H](NC(=O)[C@@H]1[C@H]2CCC[C@H]2CN1C(=O)[C@@H](NC(C)=O)C(C)(C)C)C(=O)C(=O)NC1CC1` [Jun8862, (1S,3aR,6aS)-2-((S)-2-acetamido-3,3-dimethylbutanoyl)-N—((S)-1-(cyclopropylamino)-1,2-dioxohexan-3-yl)octahydrocyclopenta[c]pyrrole-1-carboxamide], for which the IC50 at EV-D68 2A^pro was determined as 940 nM.
Regarding `CC(C)(C)C(NC(=O)CC12CC3CC(CC(C3)C1)C2)C(=O)N1CC2CCCC2C1C(=O)NC(Cc1ccc(F)cc1)C(=O)C(=O)NC1CC1` [Jun11763, (1S,3aR,6aS)-2-((S)-2-(2-((3S,5S,7S)-adamantan-1-yl)acetamido)-3,3-dimethylbutanoyl)-N—((S)-4-(cyclopropylamino)-1-(4-fluorophenyl)-3,4-dioxobutan-2-yl)octahydrocyclo-penta[c]pyrrole-1-carboxamide], the IC50 on EV-D68 2A^pro is 150 nM. For the same molecule, the EC50 in the assay with EV-D68 US/MO/14-18947 (setting [2]) was 190 nM.
Take `CC(C)(C)[C@H](NC(=O)CC12CC3CC(CC(C3)C1)C2)C(=O)N1C[C@@H]2CCC[C@@H]2[C@H]1C(=O)N[C@@H](CC1CC1)C(=O)C(=O)NC1CC1` [Jun11761, (1S,3aR,6aS)-2-((S)-2-(2-((3S,5S,7S)-adamantan-1-yl)acetamido)-3,3-dimethylbutanoyl)-N—((S)-1-cyclopropyl-4-(cyclopropylamino)-3,4-dioxobutan-2-yl)octahydrocyclopenta[c]pyrrole-1-carboxamide]: in the assay with EV-D68 US/MO/14-18947 (setting [3]), the “antiviral activity, in words, relative to the named comparator” value is given as “failed to improve the antiviral potency compared to Jun8861”. In assay [1], this molecule came in with an IC50 of 140 ± 10 nM.
Turning to `CCC[C@H](NC(=O)[C@@H]1[C@H]2CCC[C@H]2CN1C(=O)OCc1ccccc1)C(=O)C(=O)NC1CC1` [Jun7424, Benzyl (1S,3aR,6aS)-1-(((S)-1-(cyclopropylamino)-1,2-dioxohexan-3-yl)carbamoyl)hexahydrocyclopenta[c]pyrrole-2(1H)-carboxylate], on EV-D68 2A^pro, the IC50 was found to be 4350 nM.
On to `CCC[C@H](NC(=O)[C@@H]1[C@H]2CCC[C@H]2CN1C(=O)[C@@H](NC(=O)NC(C)(C)C)C(C)(C)C)C(=O)C(=O)NC1CC1` [Jun9475, (1S,3aR,6aS)-2-((S)-2-(3-(tert-butyl)ureido)-3,3-dimethylbutanoyl)-N—((S)-1-(cyclopropylamino)-1,2-dioxohexan-3-yl)octahydrocyclopenta[c]pyrrole-1-carboxamide], for which the IC50 on EV-D68 2A^pro worked out at 1160 nM.
Regarding `CCC[C@H](NC(=O)[C@@H]1[C@H]2CCC[C@H]2CN1C(=O)[C@@H](NC(=O)NC12CC3CC(CC(C3)C1)C2)C(C)(C)C)C(=O)C(=O)NC1CC1` [Jun1023, (1S)-2-((S)-2-(3-((3R,5R,7R)-adamantan-1-yl)ureido)-3,3-dimethylbutanoyl)-N—((S)-1-(cyclopropylamino)-1,2-dioxohexan-3-yl)octahydrocyclopenta[c]pyrrole-1-carboxamide], at EV-D68 2A^pro, the “enzymatic inhibition, in words, relative to the named comparator” value is given as “reduced enzymatic inhibition”. Besides, the EC50 in the assay on EV-D68 US/MO/14-18947 (CPE assay, EV-D68 US/MO/14-18947 in R.D. cells, read-out: Antiviral EC50) was determined as 700 nM.
Consider `CC(C)(C)[C@H](NC(=O)CC12CC3CC(CC(C3)C1)C2)C(=O)N1C[C@@H]2CCC[C@@H]2[C@H]1C(=O)N[C@@H](Cc1c[nH]c2ccccc12)C(=O)C(=O)NC1CC1` [Jun11862, (1S,3aR,6aS)-2-((S)-2-(2-((3S,5S,7S)-adamantan-1-yl)acetamido)-3,3-dimethylbutanoyl)-N—((S)-4-(cyclopropylamino)-1-(1H-indol-3-yl)-3,4-dioxobutan-2-yl)octahydrocyclopenta[c]pyrrole-1-carboxamide], for which, on EV-D68 2A^pro, the “enzymatic inhibition, in words, relative to the named comparator” value was “comparable enzymatic inhibition and antiviral activity as Jun11385”. Also, the “antiviral activity, in words, relative to the named comparator” value with EV-D68 US/MO/14-18947 (setting [3]) was “comparable enzymatic inhibition and antiviral activity as Jun11385”.

Values taken from patent US20250051283A1, “THERAPEUTIC COMPOUNDS AND METHODS” (priority 2023, published 2025).
